In ChEMBL document CHEMBL1139780, “Pentamer is the minimum structure for oligomannosylpeptoids to bind to concanavalin A” (Bioorg Med Chem Lett, 2007):
Activity calls are given as the source filed them. The calls are words filed in the database; no cut-off is given here.

Molecular target: Concanavalin-A (Canavalia ensiformis) (UniProt P02866)
Test: Binding affinity to jack bean concanavalin A by enzyme-linked lectin assay

Sequence of Concanavalin-A (Canavalia ensiformis) (P02866 whole entry): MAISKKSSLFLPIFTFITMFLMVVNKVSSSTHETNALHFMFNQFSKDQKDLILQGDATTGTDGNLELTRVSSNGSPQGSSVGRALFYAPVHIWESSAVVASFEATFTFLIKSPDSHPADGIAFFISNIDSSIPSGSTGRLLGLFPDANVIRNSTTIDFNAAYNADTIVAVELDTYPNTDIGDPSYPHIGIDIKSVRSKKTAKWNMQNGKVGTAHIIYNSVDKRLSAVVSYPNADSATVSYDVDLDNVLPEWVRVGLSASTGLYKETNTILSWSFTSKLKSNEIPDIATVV

Row | Structure (SMILES) | Activity
1 | NC(=O)CCN(CCO[C@H]1O[C@H](CO)[C@@H](O)[C@H](O)[C@@H]1O)C(=O)CN(CCO[C@H]1O[C@H](CO)[C@@H](O)[C@H](O)[C@@H]1O)C(=O)CN(CCO[C@H]1O[C@H](CO)[C@@H](O)[C@H](O)[C@@H]1O)C(=O)CN(CCO[C@H]1O[C@H](CO)[C@@H](O)[C@H](O)[C@@H]1O)C(=O)CN(CCO[C@H]1O[C@H](CO)[C@@H](O)[C@H](O)[C@@H]1O)C(=O)CN(CCO[C@H]1O[C@H](CO)[C@@H](O)[C@H](O)[C@@H]1O)C(=O)CNC(=O)CCCCCNC(=O)CCCCC1SC[C@@H]2NC(=O)N[C@H]12 (stereo not given in full) | Active
2 | NC(=O)CCN(CCO[C@H]1O[C@H](CO)[C@@H](O)[C@H](O)[C@@H]1O)C(=O)CN(CCO[C@H]1O[C@H](CO)[C@@H](O)[C@H](O)[C@@H]1O)C(=O)CN(CCO[C@H]1O[C@H](CO)[C@@H](O)[C@H](O)[C@@H]1O)C(=O)CN(CCO[C@H]1O[C@H](CO)[C@@H](O)[C@H](O)[C@@H]1O)C(=O)CN(CCO[C@H]1O[C@H](CO)[C@@H](O)[C@H](O)[C@@H]1O)C(=O)CN(CCO[C@H]1O[C@H](CO)[C@@H](O)[C@H](O)[C@@H]1O)C(=O)CNC(=O)CCCCC1SC[C@@H]2NC(=O)N[C@H]12 (stereo not given in full) | Active
3 | CN(C)c1cccc2c(S(=O)(=O)N(CCO[C@H]3O[C@H](CO)[C@@H](O)[C@H](O)[C@@H]3O)CC(=O)N(CCO[C@H]3O[C@H](CO)[C@@H](O)[C@H](O)[C@@H]3O)CC(=O)N(CCO[C@H]3O[C@H](CO)[C@@H](O)[C@H](O)[C@@H]3O)CC(N)=O)cccc12 | Active

The next lines start with the values.

Row | Activity | Structure (SMILES)
4 | Active | NC(=O)CN(CCO[C@H]1O[C@H](CO)[C@@H](O)[C@H](O)[C@@H]1O)C(=O)CN(CCO[C@H]1O[C@H](CO)[C@@H](O)[C@H](O)[C@@H]1O)C(=O)CN(CCO[C@H]1O[C@H](CO)[C@@H](O)[C@H](O)[C@@H]1O)C(=O)CN(CCO[C@H]1O[C@H](CO)[C@@H](O)[C@H](O)[C@@H]1O)C(=O)CN(CCO[C@H]1O[C@H](CO)[C@@H](O)[C@H](O)[C@@H]1O)C(=O)CNC(=O)CCCCCNC(=O)CCCCC1SC[C@@H]2NC(=O)N[C@H]12 (stereo not given in full)
5 | Active | NC(=O)CN(CCO[C@H]1O[C@H](CO)[C@@H](O)[C@H](O)[C@@H]1O)C(=O)CN(CCO[C@H]1O[C@H](CO)[C@@H](O)[C@H](O)[C@@H]1O)C(=O)CN(CCO[C@H]1O[C@H](CO)[C@@H](O)[C@H](O)[C@@H]1O)C(=O)CN(CCO[C@H]1O[C@H](CO)[C@@H](O)[C@H](O)[C@@H]1O)C(=O)CN(CCO[C@H]1O[C@H](CO)[C@@H](O)[C@H](O)[C@@H]1O)C(=O)CNC(=O)CCCCC1SC[C@@H]2NC(=O)N[C@H]12 (stereo not given in full)
